Like-named read-outs stand apart in the source and are kept apart here. Each block holds one compound with its values, some of them ahead of it. Where a SMILES comes first, the peptide text is derived from it. Bridges are numbered along the chain shown (N, C = ends). [ ]: non-standard residue; d: D form. The star is where a group is joined. Heptanoyl(6-Me) = CC(C)CCCCC(=O)*; X1 = CC[C@H](C)CCCCC(=O)*; Dab = NCC[C@H](N)C(=O)O
What was measured:
[1] = Autosampler stability of processed colistin samples; assay type: physicochemical; settings: autosampler 4 °C, accuracy, LC-MS/MS, mean ± SD, n = 3
Method: (§1) The SPE column was activated by using 1 mL of methanol followed by 2 mL of ultrapure water. Subsequently, 200 μL of either calibration standard samples, QC samples, or patient plasma samples were mixed with 100 μL of IS working solution and 700 μL of 1.43 % ammonia, This step is to ensure that the solution is in a non-acidic environment. This mixture was thoroughly vortexed to ensure homogeneity. The mixed samples were then loaded onto the Welch BRP SPE columns. After sequentially washing the column with a total of 4 mL of 1 % ammonia, the analytes were eluted twice with 200 μL of […] (30:70, v/v) containing 4 % formic acid. Ultimately, 400 μL total eluate was collected and analyzed by LC-MS/MS.
(§2) This study investigated the stability of colistin A and colistin B during the assay process, including the stability of plasma samples at room temperature for 24 h, the stability through three cycles of repeated freeze–thaw from −80 °C to room temperature, the stability during storage at −80 °C for three months, and the autosampler stability of processed samples at 4°C for 24 h. Three parallel samples were prepared for each condition. If the accuracy of the samples under storage conditions is within 85 % to 115 %, the stability is considered acceptable.

[2] = Stability of colistin A and colistin B in plasma samples; assay type: in vitro ADME; settings: spiked human plasma, accuracy vs theoretical concentration, LC-MS/MS, mean ± SD, n = 3; for −80 °C freeze–thaw 3 times: three freeze–thaw cycles −80 °C to room temperature
Method: The calibration standard samples and QC samples were both obtained by diluting the corresponding working solution with blank plasma at a ratio of 1:19. The concentrations of the calibration standard samples were 0.10, 0.25, 0.50, 1.0, 2.5, 5.0, 8.0 and 10 μg/mL while the concentrations of the QC samples were 0.10 (LLOQ), 0.30 (LQC), 2.0 (MQC), 7.5 (HQC), and 30 (DQC) μg/mL.
as §1, §2

[3] = cited from earlier work
Method: The concentration–time curves and PK parameters of colistin and CMS are shown in Fig. 6 and Table 5, respectively. A total of three patients treated with CMS for carbapenem-resistant Gram-negative bacterial infections were included in this study (Ethical approval number: TJ-IRB20220737). The measured trough concentrations of colistin (Cmin) ranged from 0.97 μg/mL to 2.84 μ g/mL, and the average Cmin was 1.61 ± 1.06 μ g/mL.

[4] = Pharmacokinetics / TDM of CMS and colistin in patient plasma; assay type: in vivo, human; settings: for AUC(0-t): 150 mg CBA
Method: as §1
The concentration of CMS was determined by calculating the difference between the concentration of total colistin after complete in vitro conversion and the concentration of free colistin in vivo. In vitro conversion of CMS was performed by sulfuric acid hydrolysis. Samples were processed as follows: 25 μL of 1 mol/L H2SO4 was added to a tube containing 200 μL of patient plasma sample and 100 μL of IS working solution, acidified at room temperature on a shaker for 1 h, and then 50 μL of 1 mol/L NaOH was added to neutralize the acid hydrolysis to maintain the pH of the final solution in the range of 7.0–7.5. After vortex mixing, 625 μL of 1.43 % ammonia solution was added and mixed thoroughly. After this conversion process, the concentration of total colistin was determined as free colistin described above.
The study included three patients infected with carbapenem-resistant Gram-negative bacteria. The patients provided informed consent, and the research project was carried out following the regulations of the Ethics Committee (Ethical approval number: TJ-IRB20220737) of Tongji Medical College, Huazhong University of Science and Technology. The physician prescribed a weight-based dosing regimen with a 300 mg loading dose of colistin base activity (CBA) and a maintenance dose of 150 mg CBA. The sample collection for this session took place during the administration of the fourth dose. […] Blood samples were collected by EDTA tubes and placed on ice and transported to the lab within 2 h. The samples were centrifuged at a speed of 1000 g for 10 min at 4°C and the supernatant was stored at −20 °C for subsequent sample preparation.
Pharmacokinetic parameters, including area under the concentration–time curve from 0 to the last measurable time point (AUC0-t) and from 0 to infinity (AUC0-∞), peak concentration (Cmax), time to reach peak concentration (Tmax), elimination half-life (t1/2), apparent volume of distribution (V), apparent total clearance (CL), and mean residence time (MRT0-∞) were calculated using DAS 2.0 (Shanghai University of TCM, China).

[5] = SPE eluate (acetonitrile 30:70 with 4 % formic acid) of HQC 7.5 μg/mL plasma
[6] = SPE eluate (acetonitrile 30:70 with 4 % formic acid) of LQC 0.30 μg/mL plasma
[7] = CMS infusion, 150 mg CBA maintenance, fourth dose, plasma, LC-MS/MS, patient 1
[8] = CMS infusion, 150 mg CBA maintenance, fourth dose, plasma, LC-MS/MS, patient 2
[9] = CMS infusion, 150 mg CBA maintenance, fourth dose, plasma, LC-MS/MS, patient 3

Compound: CC[C@H](C)CCCCC(=O)N[C@@H](CCN)C(=O)N[C@H](C(=O)N[C@@H](CCN)C(=O)N[C@H]1CCNC(=O)[C@H]([C@@H](C)O)NC(=O)[C@H](CCN)NC(=O)[C@H](CCN)NC(=O)[C@H](CC(C)C)NC(=O)[C@@H](CC(C)C)NC(=O)[C@H](CCN)NC1=O)[C@@H](C)O [Colistin A, colistin A] (X1-[Dab]T[Dab][Dab][Dab][dL]L[Dab][Dab]T; lactam 4-C)
Processed sample In the sampler at 4 °C for 24 h [1, 5]: 100.74 ± 4.06%
Processed sample In the sampler at 4 °C for 24 h [1, 6]: 102.44 ± 1.43%
Frozen at −80 °C for 3 months ([2]; HQC 7.5 μg/mL): 101.24 ± 1.46%
Room temperature 24 h ([2]; HQC 7.5 μg/mL): 91.48 ± 3.06%
−80 °C freeze–thaw 3 times ([2]; HQC 7.5 μg/mL): 93.04 ± 1.97%
Frozen at −80 °C for 3 months ([2]; LQC 0.30 μg/mL): 98.31 ± 5.04%
Room temperature 24 h ([2]; LQC 0.30 μg/mL): 104.77 ± 4.59%
−80 °C freeze–thaw 3 times ([2]; LQC 0.30 μg/mL): 106.19 ± 2.48%

Compound: CC(C)CCCCC(=O)N[C@@H](CCN)C(=O)N[C@H](C(=O)N[C@@H](CCN)C(=O)N[C@H]1CCNC(=O)[C@H]([C@@H](C)O)NC(=O)[C@H](CCN)NC(=O)[C@H](CCN)NC(=O)[C@H](CC(C)C)NC(=O)[C@@H](CC(C)C)NC(=O)[C@H](CCN)NC1=O)[C@@H](C)O [Colistin B, colistin B] ({Heptanoyl(6-Me)}-[Dab]T[Dab][Dab][Dab][dL]L[Dab][Dab]T; lactam 4-C)
Processed sample In the sampler at 4 °C for 24 h [1, 5]: 106.46 ± 6.48%
Processed sample In the sampler at 4 °C for 24 h [1, 6]: 108.54 ± 3.07%
Frozen at −80 °C for 3 months ([2]; HQC 7.5 μg/mL): 98.76 ± 4.29%
Room temperature 24 h ([2]; HQC 7.5 μg/mL): 99.39 ± 1.70%
−80 °C freeze–thaw 3 times ([2]; HQC 7.5 μg/mL): 99.13 ± 6.46%
Frozen at −80 °C for 3 months ([2]; LQC 0.30 μg/mL): 109.29 ± 3.71%
Room temperature 24 h ([2]; LQC 0.30 μg/mL): 110.01 ± 3.95%
−80 °C freeze–thaw 3 times ([2]; LQC 0.30 μg/mL): 110.17 ± 4.65%

Compound: CC[C@H](C)CCCCC(=O)N[C@@H](CCN)C(=O)N[C@H](C(=O)N[C@@H](CCN)C(=O)N[C@H]1CCNC(=O)[C@H]([C@@H](C)O)NC(=O)[C@H](CCN)NC(=O)[C@H](CCN)NC(=O)[C@H](CC(C)C)NC(=O)[C@@H](CC(C)C)NC(=O)[C@H](CCN)NC1=O)[C@@H](C)O [Colistin, colistin] (X1-[Dab]T[Dab][Dab][Dab][dL]L[Dab][Dab]T; lactam 4-C)
Tmax ([3]; healthy subjects): 2 h
half-life ([3]; healthy volunteers, ref Couet W et al., 31): 3.0 ± 0.6 h
AUC0-12h [4, 7]: 18730 ng·h/mL
AUC0-24h [4, 7]: 37480 ng·h/mL
AUC0-∞ [4, 7]: 31440 ng·h/mL
CL (apparent total clearance) [4, 7]: 4.77 L/h
Cmax [4, 7]: 2080 ng/mL
Cmin [4, 7]: 970 ng/mL
Css [4, 7]: 1560 ng/mL
MRT0-∞ (mean residence time) [4, 7]: 13.34 h
Tmax [4, 7]: 2.00 h
Vz (apparent volume of distribution) [4, 7]: 62.61 L
t1/2 (elimination half-life) [4, 7]: 9.09 h
AUC0-12h [4, 8]: 43030 ng·h/mL
AUC0-24h [4, 8]: 85740 ng·h/mL
AUC0-∞ [4, 8]: 105170 ng·h/mL
CL (apparent total clearance) [4, 8]: 1.43 L/h
Cmax [4, 8]: 4520 ng/mL
Cmin [4, 8]: 2840 ng/mL
Css [4, 8]: 3570 ng/mL
MRT0-∞ (mean residence time) [4, 8]: 22.04 h
Tmax [4, 8]: 2.00 h
Vz (apparent volume of distribution) [4, 8]: 30.93 L
t1/2 (elimination half-life) [4, 8]: 15.03 h
AUC0-12h [4, 9]: 18490 ng·h/mL
AUC0-24h [4, 9]: 37080 ng·h/mL
AUC0-∞ [4, 9]: 25180 ng·h/mL
CL (apparent total clearance) [4, 9]: 5.96 L/h
Cmax [4, 9]: 2450 ng/mL
Cmin [4, 9]: 1040 ng/mL
Css [4, 9]: 1550 ng/mL
MRT0-∞ (mean residence time) [4, 9]: 10.86 h
Tmax [4, 9]: 3.00 h
Vz (apparent volume of distribution) [4, 9]: 49.04 L
t1/2 (elimination half-life) [4, 9]: 5.71 h
AUC0-24h ([4]; first of the three patients): 37430 ng·h/mL
Css,avg ([4]; first of the three patients): 1560 ng/mL
AUC(0-t) ([4]; human, in vivo, iv, patients on CMS infusion (300 mg CBA loading, 150 mg CBA maintenance), fourth dose, plasma, SPE LC-MS/MS, DAS 2.0, mean ± SD of 3 patients, SD, read-out: AUC0-12h): 26800 ± 14100 ng·h/mL
AUC(0-t) ([4]; human, in vivo, iv, patients on CMS infusion (300 mg CBA loading, 150 mg CBA maintenance), fourth dose, plasma, SPE LC-MS/MS, DAS 2.0, mean ± SD of 3 patients, SD, read-out: AUC0-24h): 53400 ± 28000 ng·h/mL
AUC(0-inf) ([4]; human, in vivo, iv, patients on CMS infusion (300 mg CBA loading, 150 mg CBA maintenance), fourth dose, plasma, SPE LC-MS/MS, DAS 2.0, mean ± SD of 3 patients, SD): 53900 ± 44500 ng·h/mL
clearance ([4]; human, in vivo, iv, patients on CMS infusion (300 mg CBA loading, 150 mg CBA maintenance), fourth dose, plasma, SPE LC-MS/MS, DAS 2.0, mean ± SD of 3 patients, SD, read-out: CL (apparent total clearance) (converted)): 67.5 mL/min
MRT ([4]; human, in vivo, iv, patients on CMS infusion (300 mg CBA loading, 150 mg CBA maintenance), fourth dose, plasma, SPE LC-MS/MS, DAS 2.0, mean ± SD of 3 patients, SD, read-out: MRT0-∞ (mean residence time)): 15.4 ± 5.87 h
Vd ([4]; human, in vivo, iv, patients on CMS infusion (300 mg CBA loading, 150 mg CBA maintenance), fourth dose, plasma, SPE LC-MS/MS, DAS 2.0, mean ± SD of 3 patients, SD, read-out: Vz (apparent volume of distribution)): 47.5 ± 15.9 L
half-life ([4]; human, in vivo, iv, patients on CMS infusion (300 mg CBA loading, 150 mg CBA maintenance), fourth dose, plasma, SPE LC-MS/MS, DAS 2.0, mean ± SD of 3 patients, SD, read-out: t1/2 (elimination half-life) (converted)): 9.94 ± 4.72 h
Cmax ([4]; human, in vivo, iv, patients on CMS infusion (300 mg CBA loading, 150 mg CBA maintenance), fourth dose, plasma, SPE LC-MS/MS, mean ± SD of 3 patients, SD, read-out: Cmax): 3010 ± 1320 ng/mL
Tmax ([4]; human, in vivo, iv, patients on CMS infusion (300 mg CBA loading, 150 mg CBA maintenance), fourth dose, plasma, SPE LC-MS/MS, mean ± SD of 3 patients, SD, read-out: Tmax): 2.33 ± 0.58 h
time at which peak concentration (Cmax) was reached ([4]; in words, three patients, CMS infusion (1 h)): at 1-hour post-infusion
Css ([4]; patients on CMS infusion (300 mg CBA loading, 150 mg CBA maintenance), fourth dose, plasma, SPE LC-MS/MS, DAS 2.0, mean ± SD of 3 patients, SD): 2230 ± 1170 ng/mL
Cmin ([4]; patients on CMS infusion (300 mg CBA loading, 150 mg CBA maintenance), fourth dose, plasma, SPE LC-MS/MS, mean ± SD of 3 patients, SD): 1610 ± 1060 ng/mL
AUC0-24h ([4]; second of the three patients): 86050 ng·h/mL
AUC0-24h ([4]; third of the three patients): 36980 ng·h/mL

CL (apparent total clearance) ([4]; human, in vivo, iv, SD): 6.87 ± 1.38 L/h
Tmax ([4]; human, in vivo, iv, SD): 1.33 ± 0.58 h
Vz (apparent volume of distribution) ([4]; human, in vivo, iv, SD): 14.11 ± 2.39 L
t1/2 (elimination half-life) ([4]; human, in vivo, iv, SD): 1.50 ± 0.57 h
Compound: colistin methanesulfonate [CMS]
Tmax ([3]; human, in vivo): 1 h
half-life ([3]; human, in vivo): 2.0 ± 0.12 h
